In general, IC50 refers to the midpoint of a concentration-inhibition curve.

Data on 18 compounds can be found in ChEMBL document CHEMBL2434847, “Design, synthesis, and structure-activity relationships of novel 6,7-disubstituted-4-phenoxyquinoline derivatives as potential antitumor agents” (Eur J Med Chem, 2013).

In one test the test system is HT-29. Description: Cytotoxicity against human HT-29 cells after 72 hrs by MTT assay. The conditions noted are these: HT-29, 72 h.
The nature of test [1]: Cytotoxicity against human H460 cells after 72 hrs by MTT assay. The conditions noted are these: NCI-H460, 72 h. A general note: Tetrazolium dyes change colour on reduction, which living cells bring about.
In another test the test system is MKN-45. Put plainly: Cytotoxicity against human MKN45 cells after 72 hrs by MTT assay. The conditions noted are these: MKN-45, 72 h.

For `COc1cc2c(Oc3ccc(NC(=O)c4cc(-c5ccccc5F)ccn4)cc3F)ccnc2cc1OCCCN1CCN(C)CC1`, the IC50 in the test on HT-29 was 0.22 µM; in test [1], 0.14 µM; in the test on MKN-45, 0.15 µM.

For `COc1cc2c(Oc3ccc(NC(=O)c4cc(-c5ccc(C)cc5)ccn4)cc3F)ccnc2cc1OCCCN1CCCCC1`, the IC50 with HT-29 was 0.34 µM; in test [1], 0.16 µM; in the test with MKN-45 it was 1.67 µM.

Consider `COc1cc2c(Oc3ccc(NC(=O)c4cc(-c5ccc(C(F)(F)F)cc5)ccn4)cc3F)ccnc2cc1OCCCN1CCOCC1`, for which the IC50 with HT-29 is 5.07 µM; in test [1], 52.7 µM; with MKN-45, 78.8 µM.

As to `COc1cc2c(Oc3ccc(NC(=O)c4nccc(-c5ccc(F)cc5)n4)cc3F)ccnc2cc1OCCCN1CCOCC1`, the IC50 with HT-29 worked out at 0.11 µM; in test [1], 0.22 µM; in the test with MKN-45, 0.36 µM.

Consider `COc1cc2c(Oc3ccc(NC(=O)c4cc(-c5ccc(F)cc5)ccn4)cc3F)ccnc2cc1OCCCN1CCOCC1`, for which the IC50 in the test on HT-29 stood at 1 µM; in test [1] it was 1.87 µM; with MKN-45, 0.87 µM.

`COc1cc2c(Oc3ccc(NC(=O)c4nccc(-c5ccc(C)cc5)n4)cc3F)ccnc2cc1OCCCN1CCN(C)CC1`: the IC50 is 0.21 µM in the test with HT-29, 0.16 µM in test [1] and 0.34 µM in the test with MKN-45.

With `COc1cc2c(Oc3ccc(NC(=O)c4nccc(-c5ccc(F)cc5)n4)cc3F)ccnc2cc1OCCCN1CCCCC1`, the IC50 in the test on HT-29 is 0.12 µM; in test [1], 0.24 µM; in the test on MKN-45, 0.93 µM.

Consider `COc1cc2c(Oc3ccc(NC(=O)c4nccc(-c5ccc(C)cc5)n4)cc3F)ccnc2cc1OCCCN1CCCC1`, for which the IC50 amounted to 0.67 µM with HT-29, 0.44 µM in test [1] and 0.24 µM in the test with MKN-45.

Turning to `COc1ccc(-c2ccnc(C(=O)Nc3ccc(Oc4ccnc5cc(OCCCN6CCCC6)c(OC)cc45)c(F)c3)c2)cc1`, the results for the IC50 (in the test on HT-29; in test [1]; with MKN-45) were 0.35 µM, 0.2 µM and 0.15 µM, respectively.

With `COc1cc2c(Oc3ccc(NC(=O)c4cc(-c5ccc(F)cc5)ccn4)cc3F)ccnc2cc1OCCCN1CCN(C)CC1`, the IC50 stood at 1.46 µM in the test on HT-29, 0.43 µM in test [1] and 0.51 µM with MKN-45.

As to `COc1cc2c(Oc3ccc(NC(=O)c4nccc(-c5ccccc5)n4)cc3F)ccnc2cc1OCCCN1CCCCC1`, the concentration for half-maximal inhibition (IC50) with HT-29 came to 0.26 µM; in test [1], 0.33 µM; in the test with MKN-45, 1.03 µM.

In the case of `COc1ccc(-c2ccnc(C(=O)Nc3ccc(Oc4ccnc5cc(OCCCN6CCCC6)c(OC)cc45)c(F)c3)c2)c(OC)c1`, the values for the IC50 (in the test on HT-29; in test [1]; in the test with MKN-45) were 0.63 µM, 0.52 µM and 0.74 µM, respectively.

As for `COc1ccc(-c2ccnc(C(=O)Nc3ccc(Oc4ccnc5cc(OCCCN6CCOCC6)c(OC)cc45)c(F)c3)c2)c(OC)c1`, the values for the IC50 (in the test with HT-29; in test [1]; in the test on MKN-45) were 1.53 µM, 12.7 µM and 6.68 µM, respectively.

For `COc1ccc(-c2ccnc(C(=O)Nc3ccc(Oc4ccnc5cc(OCCCN6CCOCC6)c(OC)cc45)c(F)c3)c2)cc1`, the figures for the IC50 (in the test with HT-29; in test [1]; in the test with MKN-45) were 1.34 µM, 3.12 µM and 1.15 µM, respectively.

On to `COc1cc2c(Oc3ccc(NC(=O)c4cc(-c5ccccc5C)ccn4)cc3F)ccnc2cc1OCCCN1CCCC1`, for which the IC50 was 1.15 µM in the test on HT-29, 0.42 µM in test [1] and 0.44 µM in the test with MKN-45.

Take `COc1ccc(-c2ccnc(C(=O)Nc3ccc(Oc4ccnc5cc(OCCCN6CCN(C)CC6)c(OC)cc45)c(F)c3)c2)cc1`: the concentration for half-maximal inhibition (IC50) amounted to 0.39 µM in the test on HT-29, 0.37 µM in test [1] and 0.25 µM in the test on MKN-45.

As to `COc1ccc(-c2ccnc(C(=O)Nc3ccc(Oc4ccnc5cc(OCCCN6CCN(C)CC6)c(OC)cc45)c(F)c3)c2)c(OC)c1`, the IC50 with HT-29 is 0.42 µM; in test [1], 0.43 µM; in the test on MKN-45, 0.33 µM.

For the compound `COc1cc2c(Oc3ccc(NC(=O)c4nccc(-c5ccc(F)cc5F)n4)cc3F)ccnc2cc1OCCCN1CCOCC1`, the IC50 in the test on HT-29 is 2.19 µM; in test [1], 1.03 µM; in the test on MKN-45 it was 0.96 µM.
